Test results reported in US11028079B2 (ConverGene LLC, priority 2015, dated 2021).
pKd: −log10 of the molar value.

Each compound was assayed against T1, BRD4 bromodomains (Homo sapiens, UniProt O60885) (assay: BROMOscan bromodomain competition binding assay (DiscoveRx)). Settings: Kd from 11 compound concentrations ranging from 0 to 10 μM, read-out: BROMOscan Relative Activity.
T1 construct: fused on or other part: T7 phage capsid protein (phage-display fusion; the phage DNA is read out by qPCR)
Summary of the method: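 Compounds in 0.1% DMSO/0.9% MEG competed with a solid-phase acetylated peptide for T7 phage-fused BRD4 bromodomains, with the retained bromodomain measured by qPCR.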

Row | SMILES | pKd
1 | Cc1noc(C)c1-c1ccc2nc(N3CCC(CCO)CC3)nc(NCc3cccc(Cl)c3)c2c1 [Example 30, 2-(1-(4-((3-chlorobenzyl)amino)-6-(3,5-dimethylisoxazol-4-yl)quinazolin-2-yl)piperidin-4-yl)ethanol] | 5.30 to 6.30
2 | Cc1noc(C)c1-c1ccc2ncnc(N3CCOCC3c3ccccc3)c2c1 (stereo not shown) [Example 264, 4-(6-(3,5-dimethylisoxazol-4-yl)quinazolin-4-yl)-3-phenylmorpholine] | > 6.30
3 | Cc1noc(C)c1-c1ccc2nc(N3CCN(CCN(C)C)CC3)nc(N3CCCC3c3ccccc3)c2c1 (stereo not shown) [Example 174, 2-(4-(6-(3,5-dimethylisoxazol-4-yl)-4-(2-phenylpyrrolidin-1-yl)quinazolin-2-yl)piperazin-1-yl)-N,N-dimethylethanamine] | > 6.30
4 | Cc1noc(C)c1-c1ccc2nc(-c3cnn(CC#N)c3)nc(NCc3cccc(Cl)c3)c2c1 [Example 59, 2-(4-(4-((3-chlorobenzyl)amino)-6-(3,5-dimethylisoxazol-4-yl)quinazolin-2-yl)-1H-pyrazol-1-yl)acetonitrile] | > 6.30
5 | Cn1cc(-c2ccc3nc(N4CCN(CC(N)=O)CC4)nc(NCc4cccc(Cl)c4)c3c2)ccc1=O [Example 108, 2-(4-(4-((3-chlorobenzyl)amino)-6-(1-methyl-6-oxo-1,6-dihydropyridin-3-yl)quinazolin-2-yl)piperazin-1-yl)acetamide] | > 6.30
6 | Cc1noc(C)c1-c1ccc2nc(N3CCN(CC(=O)N(C)C)CC3)nc(NCc3cncc(Cl)c3)c2c1 [Example 119, 2-(4-(4-(((5-chloropyridin-3-yl)methyl)amino)-6-(3,5-dimethylisoxazol-4-yl)quinazolin-2-yl)piperazin-1-yl)-N,N-dimethylacetamide] | > 6.30
7 | Cc1noc(C)c1-c1ccc2nc(C(=O)NCc3cnn(C)c3)nc(NCc3cccc(Cl)c3)c2c1 [Example 186, 4-((3-chlorobenzyl)amino)-6-(3,5-dimethylisoxazol-4-yl)-N-((1-methyl-1H-pyrazol-4-yl)methyl)quinazoline-2-carboxamide] | > 6.30

Other lines, results leading:

Row | pKd | SMILES
8 | > 6.30 | Cc1noc(C)c1-c1ccc2nc(N3CCN(C(=O)CN)CC3)nc(NCc3cccc(Cl)c3)c2c1 [Example 55, 2-amino-1-(4-(4-((3-chlorobenzyl)amino)-6-(3,5-dimethylisoxazol-4-yl)quinazolin-2-yl)piperazin-1-yl)ethanone]
9 | > 6.30 | Cc1noc(C)c1-c1ccc2nc(N3CCN(S(C)(=O)=O)CC3)nc(N3CCOC[C@H]3c3ccccc3)c2c1 [Example 268, (R)-4-(6-(3,5-dimethylisoxazol-4-yl)-2-(4-(methylsulfonyl)piperazin-1-yl)quinazolin-4-yl)-3-phenylmorpholine]
10 | > 6.30 | Cc1csc(CNc2nc(N3CCN(CCN(C)C)CC3)nc3ccc(-c4c(C)noc4C)cc23)c1 [Example 87, 2-(4-(2-(dimethylamino)ethyl)piperazin-1-yl)-6-(3,5-dimethylisoxazol-4-yl)-N-((4-methylthiophen-2-yl)methyl)quinazolin-4-amine]
11 | > 6.30 | Cc1noc(C)c1-c1ccc2nc(N3CCN(CCN(C)C)CC3)nc(NC(C)c3cccs3)c2c1 (stereo not shown) [Example 89, 2-(4-(2-(dimethylamino)ethyl)piperazin-1-yl)-6-(3,5-dimethylisoxazol-4-yl)-N-(1-(thiophen-2-yl)ethyl)quinazolin-4-amine]
12 | > 6.30 | Cc1csc(CNC(=O)c2nc(NCc3cccc(Cl)c3)c3cc(-c4c(C)noc4C)ccc3n2)n1 [Example 214, 4-((3-chlorobenzyl)amino)-6-(3,5-dimethylisoxazol-4-yl)-N-((4-methylthiazol-2-yl)methyl)quinazoline-2-carboxamide]
13 | > 6.30 | Cc1noc(C)c1-c1ccc2nc(-c3cnn(C4CNC4)c3)nc(N3CCOC[C@@H]3c3ccccc3)c2c1 [Example 326, (S)-4-(2-(1-(azetidin-3-yl)-1H-pyrazol-4-yl)-6-(3,5-dimethylisoxazol-4-yl)quinazolin-4-yl)-3-phenylmorpholine]
